This test addresses α-chymotrypsin (α-Chymo) (Bos taurus, UniProt P00766). Nature of the test: UV-Visible titration (Benesi-Hildebrand binding constant), supported by tryptophan fluorescence quenching (Ksv […] at […] K, static) and CD.

Molecules are shown by their SMILES.

Regarding `CNc1ccc2nc3ccc(N)cc3[s+]c2c1` [AzC, AzureC], the Kd is 17.5 µM. That is a double-digit micromolar value.

(Values after PMC9863556, “Influence of Green Synthesized Zinc Oxide Nanoparticles on Molecular Interaction and Comparative Binding of Azure Dye with Chymotrypsin: Novel Nano-Conjugate for Cancer Phototherapy” (Pharmaceutics, 2022).)
